Experimental data published in patent US11235001B2, “RUNX inhibitor” (KYOTO UNIVERSITY, priority 2016, dated 2022).
pIC50: −log10 of the molar value. Read-outs that look alike come from different tables or passages of the source.

Key:
[1] = tested on: HUVEC (human umbilical vein endothelial cell line); assay: Proliferation of HUVEC; format: cell-based
[2] = tested on: UF1 (p53Null)
[3] = tested on: Kasumi-1; conditions: Kasumi-1, p53mut(+); for IC50: 48 hours
[4] = tested on: LU99A; assay: Cell viability, lung adenocarcinoma LU99A; format: cell-based, human; conditions: LU99A (EGFR wild-type p53 wild-type), 48 hours
[5] = tested on: A549; assay: Cell viability, lung adenocarcinoma A549; format: cell-based, human; conditions: A549 (EGFR wild-type p53 wild-type), 48 hours

How did the pIC50 [1] turn out when `CN(C)CCCNC(=O)c1cc(NC(=O)c2cc(NC(=O)c3cc(NC(=O)c4cc(NC(=O)CCCNC(=O)c5nc(NC(=O)c6nc(NC(=O)c7cc(NC(=O)c8nc(NC(=O)CCNC(=O)CCCc9ccc(N(CCCl)CCCl)cc9)cn8C)cn7C)cn6C)cn5C)cn4C)cn3C)cn2C)cn1C` [Chb-M′] was run?
The pIC50 was no more than 4.30.

And the pIC50 ([2]; culture time 48 hours)?
The pIC50 was 5.76.

What about the pIC50 ([2]; culture time 72 hours) of the same molecule?
Its pIC50 is 6.17.

And the “CI (Fa = 0.5)” value ([3]; concomitant use of Chb-M′ and PRIMA-1, Chou-Talalay, CI<1 synergism)?
The value was 0.156.

And the IC50 ([3]; read-out: IC50 (μM) of Chb-M′ in concomitant use with PRIMA-1 (5 μM), with 5 μM PRIMA-1)?
Its IC50 is 0.359 µM.

What about the IC50 ([3]; read-out: IC50 (μM) of Chb-M′ single agent administration) of the same molecule?
Its IC50 is greater than 100 µM.

And the “IC50 compared with the EGFR inhibitor (gefitinib)” value [4]?
Its value is “lower IC50 values”.

And the “IC50 compared with the EGFR inhibitor (gefitinib)” value [5]?
Its value is “lower IC50 values”.
